Reference: US10272056B2, “Treatment for mitochondrial diseases” (The George Washington University a Congressionally …, priority 2015, dated 2019)

Assays:
neuronal cells [1] = test: Mitochondrial membrane potential (TMRM dye, confocal microscopy and flow cytometry); format: cell-based; conditions: NaBt-treated cells
Method: (§1) FIG. 9A-9C are graphs and images from microscopy showing that NaBt enhances mitochondrial bioenergetics. (A) Flow cytometric analysis of Δψm; *p<0.001. (B) ATP levels in live cells using a Mg^2+-based assay; *p<0.001. (C) Electron microscopy of mitochondria in control and NaBt-treated cells; scale bar=200 nm.
(§2) NaBt increases mitochondrial membrane potential (Δψm) and ATP levels. The MTR-based data raised the question: could NaBt also enhance mitochondrial bioenergetics? Δψm was assessed by live cell confocal microscopy and flow cytometry using the TMRM dye, which accumulates in the mitochondrial matrix in a Δψm-dependent fashion. A 1.5-fold increase in Δψm in NaBt-treated cells was observed (FIG. 9A). To test whether enhanced Δψm led to increased ATP output, ATP levels were monitored using the live cell Mg^2+-based ATP assay, which is compatible with the TMRM dye, allowing simultaneous recordings. A 1.6-fold increase in ATP levels in NaBt-treated cells was observed (FIG. 9B), in line with the MTR- and TMRM-based findings and the elongated mitochondrial morphology.

NRF-1 = test: Quantitative immunoblot analysis of NRF-1; format: cell-based; conditions: NaBt treatment, PC12-ND6
Text: (§3) FIG. 11A-11D are images from microscopy and graphs showing NaBt promotes mtDNA replication via the NRF-1/Tfam axis. (A) Confocal analysis of mtDNA foci; scale bar=5 (B) Quantitative analysis of mtDNA copy number by PCR; *p<0.001. (C, D) Quantitative immunoblot analysis of NRF-1 and Tfam; *p<0.001.
(§4) NaBt enhances mtDNA replication via the PGC1α-mediated NRF-1/Tfam axis. It was investigated whether NaBt enhanced mtDNA replication using the PicoGreen® dye to label mtDNA. PC12-ND6 cells were transfected with the mito-dsRed vector prior to NaBt treatment followed by PicoGreen® staining. […] To corroborate enhanced mitochondrial biogenesis, two key target genes of PGC1α were examined, the NRF-1 transcription factor and its direct target gene Tfam, both essential for mitochondrial biogenesis. […] The findings confirm the NaBt-mediated modulation of mitochondrial biogenesis and mtDNA replication in neuronal cells.

PC12-ND6 cells = test: mtDNA replication (PicoGreen staining, quantitative PCR); format: cell-based; conditions: confirmed by quantitative PCR
Text: as §3, §4

[2] = system: E17.5 hippocampal neurons; test: Cellular viability of neurons exposed to NaBt; format: cell-based; conditions: 2 mM NaBt
HDAC1-3 enzymes = conditions: via the HDAC1-3 enzymes; cited from earlier work
[3] = system: histones H2B, H3 and H4 proteins; test: Acetylation of specific lysine residues of histones (immunocytochemistry); format: cell-based; conditions: NaBt 5 mM, three days, PC12-ND6 cells
Method: PC12-ND 6 cells were treated with NaBt (5 mM) for three days before performing immunocytochemistry to evaluate the acetylation status of lysine residues of key histone proteins, as listed on top of each confocal micrograph. Left panels illustrate representative pictures of PC12-ND6 cells grown in the absence (control) or presence of NaBt for three days and labeled with specific acetylated Lys antibody (green) and DAPI as a nuclear label (blue). Scale bar represents 10 μm. The right panels show the graph for each quantification of acetylated lysine residue for key histone proteins. Results are expressed as relative fluorescence intensity±S.D. (1000 cells per condition; n=3; * p=0.0001).
Sodium butyrate induces epigenetic reprogramming by acetylating key amino acid residues of histone proteins H2B, H3 and H4. Histone acetylation, which is mediated by two groups of enzymes, histone acetyltransferases (HATs) and histone deacetylases (HDAC), promote gene expression responsible to induce differentiation of neural stem cells and neural progenitor cells. Epigenetic regulators, such as the NaBt and its derivatives, inhibit the activity of HDAC enzymes, thereby favoring HAT activity and inducing an open chromatin structure to allow easy access to the DNA via histone acetylation. Thus, which lysine residues of key histone proteins were targeted by NaBt ws investigated. The lysine residue K27 of the histone H3 protein was targeted, as it is known to be acetylated to favor expression of lineage-specific genes associated with neural differentiation of progenitors and stem cells. Immunocytochemistry results confirmed that NaBt induced a 210% increased acetylation of the K27 residue of H3 (FIG. 5). Analysis was extended to additional acetylation marks, such as the lysine residue K9 of the histone H3, the K12 residue of histone H4 […] are important indicators of active enhancer elements. […] Thus, NaBt induces a specific epigenetic reprogramming of neural-like progenitor PC12-ND6 cell by inducing a series of acetylation marks to confer transcriptional competence.

neuronal cells [4] = test: Electron microscopy of mitochondria; format: cell-based; conditions: NaBt-treated vs control cells
Method: as §1, §2

MELAS fibroblasts = test: Relative cellular ATP levels (magnesium green dye); format: cell-based, human
Method: FIG. 19 is a graph showing that NaBt augments the relative cellular ATP levels in MELAS fibroblasts. The relative cellular ATP content was examined by a fluorescent probe, magnesium green (Mg Gr). MELAS fibroblasts were treated for 6 and 24 hours with NaBt (2.5 m M) before being labeled with Mg-Gr.
To assess relative cellular ATP levels in live MELAS fibroblasts, the fluorescent magnesium green (Mg-Gr) dye, which has been successfully employed in live patient fibroblasts, was used. Fluorescence emission from the Mg-Gr dye is directly proportional to the concentration of intracellular free Mg2+ concentration. Since the affinity of Mg2+ for ATP is about ten times higher than its affinity for ADP or AMP, the fluorescence intensity is inversely correlated with the intracellular levels of ATP. A time course exposure to NaBt ([…]) was performed using MELAS fibroblasts from one patient that has been comprehensively evaluated in terms of mitochondrial mass, mitochondrial membrane potential, and mitochondrial dynamics and networking (FIGS. 17 and 18). […] Thus, butyrates augment the functional mitochondrial mass in dermal MELAS fibroblasts, thereby reversing their deficits in mitochondrial mass and bioenergetics capacity.

## CCCC(=O)[O-].[Na+] [NaBt, sodium butyrate]
Neuronal cells [1]
  increase in Δψm: 1.5 fold
NRF-1
  NRF-1 expression: increased on day 1
PC12-ND6 cells
  mtDNA foci: increased number of mtDNA foci
[2]
  cellular viability: without affecting cellular viability
HDAC1-3 enzymes
  subset of genes targeted: 2-5%
[3]
  acetylation of histone H2B: hyperacetylated
  increased acetylation of H3K9: 250%
  increased acetylation of H4K12: 124%
  increased acetylation of the K27 residue of H3: 210%
Neuronal cells [4]
  mitochondrial micro-architecture: increased numbers of elongated cristae
MELAS fibroblasts; 24 hours NaBt 2.5 mM
  relative cellular ATP levels: became more accentuated
MELAS fibroblasts; first 24 hours of NaBt (2.5 mM) treatment
  relative cellular ATP levels: steady increase in relative cellular ATP levels
MELAS fibroblasts; six hours NaBt 2.5 mM
  relative cellular ATP levels: increase in relative cellular ATP levels
